The text below walks through data of ChEMBL document CHEMBL1123692, “Dopamine autoreceptor agonists: resolution and pharmacological activity of 2,6-diaminotetrahydrobenzothiazole and an aminothiazole analogue of apomorphine” (J Med Chem, 1987).

The subject of assay [1] is Rattus norvegicus. The assay is described as follows: Utilization of DA/g by total brain without cerebellum following alpha-MT (250 mg/kg) at a dose of 10 mg/kg. Type of assay: functional.
The test system of assay [2] is Rattus norvegicus. Put plainly: Percent difference of DA utilization when compared to saline at a dose of 10 mg/kg. The assay is classed as functional.
For assay [3], the system named is Rattus norvegicus. The assay is described as follows: Percent difference of L-DOPA accumulation when compared to saline at a dose of 10 mg/kg. The assay is classed as functional.
Assay [4] concerns Rattus norvegicus. Put plainly: Accumulation of nmol of L-DOPA/g of tissue weight corpus striatum elicited by injection of GBL and NSD at a dose of 10 mg/kg. The assay is classed as functional.
The subject of assay [5] is Rattus norvegicus. The assay is described as follows: Percent difference of L-DOPA accumulation when compared to saline at a dose of 1.0 mg/kg.

For the molecule `Cl.Cl.Nc1nc2c(s1)C[C@@H](N)CC2`, the DA utilization with Rattus norvegicus [1] came out at 2317. In the assay with Rattus norvegicus [2], the Difference was -17%.

As for `CCCN1CCCC2Cc3nc(N)sc3CC21` (stereo unspecified), the Difference with Rattus norvegicus [3] was -62%; in the assay on Rattus norvegicus [2], 75%. Also, the Accumulation with Rattus norvegicus [4] amounted to 9.1. For the same molecule, in the assay on Rattus norvegicus [1], the DA utilization stood at 4863.

Regarding `CCCN[C@@H]1CCc2nc(N)sc2C1.Cl.Cl`, the Accumulation in the assay with Rattus norvegicus [4] is on record as 19. The DA utilization in the assay on Rattus norvegicus [1] is reported as 5104. The Difference is -21% in the assay on Rattus norvegicus [5] and 84% in the assay with Rattus norvegicus [2].

In turn, `CCCN[C@H]1CCc2nc(N)sc2C1.Cl.Cl` had an Accumulation in the assay with Rattus norvegicus [4] of 11.3. In the assay on Rattus norvegicus [1], this molecule had a DA utilization of 6417. The Difference in the assay on Rattus norvegicus [5] was -53%.

`Cl.Cl.Nc1nc2c(s1)C[C@H](N)CC2` showed a DA utilization with Rattus norvegicus [1] of 2441. For the same molecule, the Difference in the assay on Rattus norvegicus [2] is -12%.

For `CN1CCc2cccc3c2C1Cc1sc(N)nc1-3.Cl.Cl` (single isomer, unassigned; (+)), the results for the Difference with Rattus norvegicus [3] (10 mg/kg) and with Rattus norvegicus [2] (10 mg/kg) were 1% and -12%, respectively. For the same molecule, in the assay with Rattus norvegicus [4] (10 mg/kg), the Accumulation was determined as 24.4. The DA utilization in the assay on Rattus norvegicus [1] (10 mg/kg) was 2441.

In the case of `CN1CCc2cccc3c2C1Cc1sc(N)nc1-3.Cl.Cl` (single isomer, unassigned; (-)), the Difference is listed as -16% in the assay on Rattus norvegicus [3] (10 mg/kg) and 41% with Rattus norvegicus [2] (10 mg/kg). In the assay with Rattus norvegicus [4] (10 mg/kg), the Accumulation is 20.1. This molecule returned a DA utilization in the assay with Rattus norvegicus [1] (10 mg/kg) of 3917.

For the molecule `CN1CCc2cccc3c2[C@H]1Cc1ccc(O)c(O)c1-3` [APOMORPHINE], the figures for the Difference in the assay on Rattus norvegicus [3] and in the assay with Rattus norvegicus [2] were -63% and 44%, respectively. In the assay with Rattus norvegicus [4], this molecule had an Accumulation of 8.9. The molecule further had a DA utilization in the assay on Rattus norvegicus [1] of 4008.

Consider `CN1CCc2cccc3c2C1Cc1sc(N)nc1-3` (racemic), for which the Difference was -38% in the assay with Rattus norvegicus [3] and 34% in the assay with Rattus norvegicus [2]. Further, the Accumulation in the assay on Rattus norvegicus [4] turned out to be 14.9. The molecule also returned a DA utilization in the assay on Rattus norvegicus [1] of 3721.
